Data set [1] addresses T1, recombinant full length human kinase MNK2 (Homo sapiens, UniProt Q9HBH9).
T1 construct: the recombinant full length human kinase MNK2; made in house; host or cells: insect cells
Kind of data set: MNK2 radiometric kinase activity assay. Format: biochemical.

Another data set can be described thus: in vitro. Particulars: mouse, microsomes.
Data set [2] deals with P-gp (human MDR1, ABCB1). Kind of data set: MDCK-MDR1 permeability (blood-brain barrier permeability). Particulars: dog.
Data set [3] deals with P-gp (human MDR1, ABCB1). Kind of data set: in vitro. Particulars: dog, MDCK-MDR1.
In data set [4] the test system is eIF4E phosphorylation at Serine 209 in HEK 293 cells. Kind of data set: eIF4E phosphorylation in HEK 293 cells (phospho-specific antibody, fluorescent plate reader).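 Further: Well-level p-eIF4E immunofluorescence normalized to DAPI signal, expressed as percent eIF4E phosphorylation, with IC50 derived from concentration-response curves.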 Format: cell-based. The following applies: Homo sapiens, HEK293; eIF4E phosphorylation at Serine 209, 2 hours exposure; read-out: HEK 293 cell.
The target of data set [5] is T2, recombinant full-length human kinase MNK1 (Homo sapiens, UniProt Q9BUB5).
T2 construct: the recombinant full-length human kinase MNK1; made in house; host or cells: insect cells
The experiment in a line: MNK1 radiometric kinase activity assay. Format: biochemical.

Data set [6] can be described thus: Liver microsome stability. Particulars: mouse, liver microsomes.
Data set [7] concerns IL-6 evoked grimace in ICR mice. Kind of data set: IL-6 evoked grimace test. It is filed as in vivo. Particulars: PO 1 hr prior to IL-6 (4ET-03-053: 10 mg/kg). The protocol: Male and female Institute for Cancer Research (ICR) mice were used in these experiments. Mice were bred in house at University of Texas at Dallas and used at between 12 and 24 weeks of age. Mice were habituated to plexiglass boxes of approximately 4×6 inches in size with openable tops. Habituation took place over 2 days with animals exposed to the boxes for at least 30 min. A blinded observer scored baseline grimacing using the method previously described by Mogil and colleagues (Langford D J, et al. “Coding of facial expressions of pain in the laboratory mouse” Nat Methods 7:447-449 (2010)). On test day, mice were given test compounds 1 hr prior to injection of interleukin 6 (human recombinant IL-6, R&D Systems) which was given at a dose of 0.1 ng in saline via an intraplantar injection as described previously (Moy J K, et al. “The MNK-eIF4E Signaling Axis Contributes to Injury-Induced Nociceptive Plasticity and the Development of Chronic Pain” J Neurosci. 37:7481-7499 (2017)). Test compounds were given orally (PO) via a flexible oral gavage canula built for mice. 4ET-03-053 is efficacious in the IL-6 evoked grimace test in mice (PO; 10 mg/kg).
Effect sizes were calculated per mouse by subtracting the baseline grimace score from the sum of the grimace scores for 1 and 3 hr time points.

The test system of data set [8] is eIF4E phosphorylation in hDRGs. The experiment in a line: p-eIF4E immunofluorescence in cultured human dorsal root ganglion cells (hDRGs). Format: cell-based. Particulars: OSM 10 and 50 ng/ml, 30 min. The protocol:
For all human DRG experiments, DRGs were recovered from organ donors at the Southwest Transplant Alliance under an IRB approved protocol at University of Texas at Dallas. DRGs were recovered within 3 hrs of cross clamp. DRGs were recovered and taken back to the University of Texas lab where they were cultured using the protocol described previously. Cultures were grown on glass coverslips for microscopy. Coverslips were coated with poly-D-lysine and laminin to improve neuronal adherence to the coverslips. Cultures of human DRG neurons were grown for 4-7 days prior to treatment with OSM. OSM treatment was done in culture media for a period of 30 min. Cells were stained with antibodies using the same protocol as described above for HEK293 cells. Imaging was done on an Olympus FV1200 microscope and image analysis was done with CellSens software. Statistical analysis was done with Graphpad Prism V8.
Human DRG recovery and other experimental protocols were the same as described herein.

The mark [9] stands for this setting: radiometric activity assay, read-out: MNK2.
Setting [10] is: radiometric activity assay, read-out: MNK1.

Like-named read-outs stand apart in the source and are kept apart here.

T2 sequence (Q9BUB5 whole entry): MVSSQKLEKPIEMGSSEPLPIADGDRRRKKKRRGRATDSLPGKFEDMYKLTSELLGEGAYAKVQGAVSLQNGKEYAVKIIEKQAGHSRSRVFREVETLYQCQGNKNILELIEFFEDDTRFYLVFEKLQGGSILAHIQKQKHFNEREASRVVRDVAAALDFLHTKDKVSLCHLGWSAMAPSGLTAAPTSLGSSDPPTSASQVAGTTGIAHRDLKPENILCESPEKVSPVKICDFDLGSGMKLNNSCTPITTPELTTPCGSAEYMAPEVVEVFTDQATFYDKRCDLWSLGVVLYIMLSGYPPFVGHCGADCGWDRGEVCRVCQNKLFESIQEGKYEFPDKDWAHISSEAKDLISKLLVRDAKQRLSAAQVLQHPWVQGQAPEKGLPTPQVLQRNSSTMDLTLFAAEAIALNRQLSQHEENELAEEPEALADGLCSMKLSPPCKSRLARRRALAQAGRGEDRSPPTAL
T1 sequence (Q9HBH9 whole entry): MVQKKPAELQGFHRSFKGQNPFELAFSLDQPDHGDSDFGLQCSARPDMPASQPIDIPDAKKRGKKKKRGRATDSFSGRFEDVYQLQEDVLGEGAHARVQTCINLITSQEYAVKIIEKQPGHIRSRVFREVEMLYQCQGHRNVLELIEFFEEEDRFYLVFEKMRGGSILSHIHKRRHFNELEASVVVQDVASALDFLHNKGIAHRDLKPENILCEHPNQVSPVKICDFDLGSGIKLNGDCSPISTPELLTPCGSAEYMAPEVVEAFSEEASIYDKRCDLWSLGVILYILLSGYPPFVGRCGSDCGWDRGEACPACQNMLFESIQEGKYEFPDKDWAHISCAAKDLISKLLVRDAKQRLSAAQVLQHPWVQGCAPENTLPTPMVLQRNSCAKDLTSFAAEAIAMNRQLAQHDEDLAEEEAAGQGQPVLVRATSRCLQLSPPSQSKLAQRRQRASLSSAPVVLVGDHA

With `Cc1cc(Nc2cc(NC(=O)C3CC3)ncn2)c(=O)n2c1C(=O)NC21CCC2(CC1)CN2` (stereo not drawn) [4ET-03-040, N-(6-((8″-methyl-1″,5″-dioxo-1″,5″-dihydro-2″H-dispiro[aziridine-2,1′-cyclohexane-4′,3″-imidazo[1,5-a]pyridin]-6″-yl)amino)pyrimidin-4-yl)cyclopropanecarboxamide], the IC50 in data set [1] stood at 2 nM; in [4], 27.4 nM; in data set [5], 38.6 nM. In “in vitro”, this molecule displayed a half-life of 1.28 h. For the same molecule, the efflux ratio at 5 uM in the data set with P-gp (human MDR1, ABCB1) [2] was found to be 2.4. The molecule also showed an apical-to-basolateral permeability (Papp A→B) at 5 uM in the data set on P-gp (human MDR1, ABCB1) [3] of 0.6 ×10⁻⁶ cm/s. Moreover, the Papp B→A at 5 uM in the data set on P-gp (human MDR1, ABCB1) [3] was 1.6 ×10⁻⁶ cm/s.

Turning to `Cc1cc(Nc2cc(N)ncn2)c(=O)n2c1C(=O)NC21CCCC2(CC2)CC1` (racemic) [rac-4ET-01-027, 6″-((6-Aminopyrimidin-4-yl)amino)-8″-methyl-2″H-dispiro[cyclopropane-1,1′-cycloheptane-4′,3″-imidazo[1,5-a]pyridine]-1″,5″-dione], the IC50 in [1] (setting [9]) amounted to 1.6 nM; in [4], 12.6 nM; in data set [5] (setting [10]) it was 35.2 nM. Also, in the data set on P-gp (human MDR1, ABCB1) [2], the Papp A→B at 5 uM came out at 52.9 ×10⁻⁶ cm/s. Moreover, the Papp B→A at 5 uM in the data set on P-gp (human MDR1, ABCB1) [2] is 62.1 ×10⁻⁶ cm/s. The efflux ratio at 5 uM in the data set on P-gp (human MDR1, ABCB1) [2] came out at 1.2. Moreover, the half-life in [6] is 1.11 h. In [7], the “efficacy in the IL-6 evoked grimace test” value is recorded as “efficacious”.

On to `Cc1cc(Nc2cc(N)ncn2)c(=O)n2c1C(=O)NC21C=CC2(CC2)CC1` (stereo not drawn) [4ET-01-051, 6″-((6-Aminopyrimidin-4-yl)amino)-8″-methyl-2″H-dispiro[cyclopropane-1,1′-cyclohexane-4′,3″-imidazo[1,5-a]pyridin]-2′-ene-1″,5″-dione], for which the IC50 in data set [1] (setting [9]) came to 3.1 nM. Further, in the data set on P-gp (human MDR1, ABCB1) [2], the Papp A→B at 5 uM turned out to be 22.7 ×10⁻⁶ cm/s, the Papp B→A at 5 uM was determined as 52.4 ×10⁻⁶ cm/s and the efflux ratio at 5 uM was found to be 2.3. Moreover, the IC50 in data set [4] was found to be 7.3 nM. This molecule also had a half-life in [6] of 13.9 h. For the same molecule, the “efficacy in the IL-6 evoked grimace test” value in data set [7] is on record as “efficacious”. For the same molecule, the IC50 in [5] (setting [10]) is 58.6 nM.

B1: oncostatin M (protein, UniProt P13725 26-221, looked up)
Oncostatin-M: AAIGSCSKEYRVLLGQLQKQTDLMQDTSRLLDPYIRIQGLDVPKLREHCRERPGAFPSEETLRGLGRRGFLQTLNATLGCVLHRLADLEQRLPKAQDLERSGLNIEDLEKLQMARPNILGLRNNIYCMAQLLDNSDTAEPTKAGRGASQPPTPTPASDAFQRKLEGCRFLHGYHRFMHSVGRVFSKWGESPNRSRR
With B1, in data set [8], the “phosphorylation of eIF4E in hDRGs (stimulus)” value is “increased phosphorylation of eIF4E”.
